Test results reported in ChEMBL document CHEMBL5032514, “Portobelamides A and B and Caciqueamide, Cytotoxic Peptidic Natural Products from a Caldora sp. Marine Cyanobacterium” (2021).

Tested on: NCI-H460
Assay: Cytotoxicity against human NCI-H460 cells assessed as cell survival at 0.9 uM measured after 48 hrs by MTT assay
Assay type: functional
Settings: read-out: Activity

Compared with C#CCCC[C@@H]1NC(=O)[C@H](C(C)C)N(C)C(=O)[C@H](COC)N(C)C(=O)[C@H](C(C)C)NC(=O)[C@H](COC)N(C)C(=O)[C@H](C)N(C)C(=O)[C@H](C(C)C)N(C)C(=O)[C@@H]2CCCN2C(=O)[C@H](C(C)C)NC(=O)[C@H]([C@@H](C)CC)N(C)C(=O)[C@H](C(C)C)N(C)C(=O)[C@@H](C(C)C)OC(=O)[C@H]1C, C#CCCC[C@@H]1NC(=O)[C@H](C(C)C)N(C)C(=O)[C@H](C)N(C)C(=O)[C@H](COC)NC(=O)[C@H](C(C)C)N(C)C(=O)[C@H](CC(C)C)N(C)C(=O)[C@@H]2CCCN2C(=O)[C@H](C(C)C)NC(=O)[C@H](COC)N(C)C(=O)[C@H](C(C)C)NC(=O)[C@@H](C(C)C)OC(=O)[C@H]1C is lower in viability at 0.9 µM: 97% for the first, 33% for the second.

C/C=C(\NC(=O)C(NC(=O)C(C)C(O)CCCCCCCCCCCCC(=O)CCCC)C(C)O)C(=O)NC(C)c1nc(C(=O)NC(C)C(C)=O)cs1 (stereo not drawn) was tested, and the viability at 0.9 µM was 78%.
